According to article PMC4230905, “(S)-3-hydroxyacyl-CoA dehydrogenase/enoyl-CoA hydratase (FadB’) from fatty acid degradation operon of Ralstonia eutropha H16” (AMB Express, 2014):

T1: FadB' ((S)-3-hydroxyacyl-CoA dehydrogenase/enoyl-CoA hydratase, H16_A0461; FadB'Re) (Cupriavidus necator, UniProt Q0KEG0)
T1 construct: N-terminal His-tag (pCOLADuet-1::3HAD), expressed in E. coli BL21; monomer (87 kDa by gel filtration); N-terminal 3HCDH and C-terminal crotonase-like domain
T1 sequence (Q0KEG0 1-807): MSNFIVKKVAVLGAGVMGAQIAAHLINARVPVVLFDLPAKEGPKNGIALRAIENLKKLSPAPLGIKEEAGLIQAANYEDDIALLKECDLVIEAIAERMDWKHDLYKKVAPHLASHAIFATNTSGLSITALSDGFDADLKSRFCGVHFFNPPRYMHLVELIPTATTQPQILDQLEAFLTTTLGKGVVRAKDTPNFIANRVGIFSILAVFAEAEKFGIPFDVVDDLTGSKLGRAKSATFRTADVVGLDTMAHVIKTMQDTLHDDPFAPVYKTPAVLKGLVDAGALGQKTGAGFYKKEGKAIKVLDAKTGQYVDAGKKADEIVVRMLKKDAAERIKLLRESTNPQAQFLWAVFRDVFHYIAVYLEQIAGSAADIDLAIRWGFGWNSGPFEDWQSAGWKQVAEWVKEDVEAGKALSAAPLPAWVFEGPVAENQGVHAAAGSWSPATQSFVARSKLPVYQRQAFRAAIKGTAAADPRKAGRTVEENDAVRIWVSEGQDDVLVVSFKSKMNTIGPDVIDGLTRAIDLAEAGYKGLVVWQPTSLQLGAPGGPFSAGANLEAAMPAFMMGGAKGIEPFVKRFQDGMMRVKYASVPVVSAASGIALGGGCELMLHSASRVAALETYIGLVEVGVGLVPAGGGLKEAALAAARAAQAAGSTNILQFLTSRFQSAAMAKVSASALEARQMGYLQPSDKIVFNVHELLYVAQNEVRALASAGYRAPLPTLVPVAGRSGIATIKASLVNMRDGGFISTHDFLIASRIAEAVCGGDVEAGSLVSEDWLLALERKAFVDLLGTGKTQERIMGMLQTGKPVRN

B1: FadB' ((S)-3-hydroxyacyl-CoA dehydrogenase/enoyl-CoA hydratase, H16_A0461; FadB'Re) (Cupriavidus necator H16) (protein)
chain: T1 sequence (Q0KEG0 1-807)
notes: N-terminal His-tag (pCOLADuet-1::3HAD), expressed in E. coli BL21; monomer (87 kDa by gel filtration); N-terminal 3HCDH and C-terminal crotonase-like domain

Experiments:
[1] = target: T1, FadB' ((S)-3-hydroxyacyl-CoA dehydrogenase/enoyl-CoA hydratase, H16_A0461; FadB'Re); assay: coupled assay, acetoacetyl-CoA-Mg2+ complex formation at […] nm; format: biochemical; details: read-out: % inhibition at 0.1 mM (enoyl-CoA hydratase activity)
[2] = target: T1, FadB' ((S)-3-hydroxyacyl-CoA dehydrogenase/enoyl-CoA hydratase, H16_A0461; FadB'Re); assay: spectrophotometric NADH oxidation at […] nm; format: biochemical; details: read-out: % inhibition at 0.1 mM (3-hydroxyacyl-CoA dehydrogenase activity)
purified protein = substrate: CC(=O)CC(=O)SCCNC(=O)CCNC(=O)[C@H](O)C(C)(C)COP(=O)(O)OP(=O)(O)OC[C@H]1O[C@@H](n2cnc3c(N)ncnc32)[C@H](O)[C@@H]1OP(=O)(O)O; assay: purified protein; format: biochemical, Cupriavidus necator; details: 3-hydroxyacyl-CoA dehydrogenase activity (reduction direction), 0.2 mM NADH, 100 mM Tris-HCl pH 7, 30 °C, no acetyl-CoA added

Molecule | inhibition at 100 µM [1] [%] | inhibition at 100 µM [2] [%] | Km (purified protein) [µM]
CCC(=O)SCCNC(=O)CCNC(=O)[C@H](O)C(C)(C)COP(=O)(O)OP(=O)(O)OC[C@H]1O[C@@H](n2cnc3c(N)ncnc32)[C@H](O)[C@@H]1OP(=O)(O)O [propionyl-CoA] | ~60 |  | 
CC(C)(COP(=O)(O)OP(=O)(O)OC[C@H]1O[C@@H](n2cnc3c(N)ncnc32)[C@H](O)[C@@H]1OP(=O)(O)O)[C@@H](O)C(=O)NCCC(=O)NCCS [CoA] | 30 | 20 | 
CC(=O)SCCNC(=O)CCNC(=O)[C@H](O)C(C)(C)COP(=O)(O)OP(=O)(O)OC[C@H]1O[C@@H](n2cnc3c(N)ncnc32)[C@H](O)[C@@H]1OP(=O)(O)O [acetyl-CoA] | 70 | ~50 | 
B1 |  |  | 48
